Experimental data: publication PMC4500896, “Frog intestinal perfusion to evaluate drug permeability: application to p-gp and cyp3a4 substrates” (Frontiers in Pharmacology, 2015)

Legend:
[1] = test system: frog intestine; test: Frog in situ single pass intestinal perfusion (SPIP), parallel-tube model; settings: non-absorbable marker in outlet perfusate, frog SPIP
[2] = as above; settings: Rana tigrina (frog), pH 7.4
[3] = test system: rat everted gut sac; settings: rat everted gut sac model; ref c (footnote not given); cited from earlier work
[4] = test system: Caco-2; set-up: method as in b (footnote not given); settings: Caco-2 cell data; ref b (footnote not given); cited from earlier work
[5] = test system: frog intestine; settings: in vivo
[6] = test system: human intestinal permeability; set-up: method as in a (footnote not given); settings: reported human Peff; ref a (footnote not given); cited from earlier work

O=S1(=O)OC(c2ccc(O)cc2)(c2ccc(O)cc2)c2ccccc21 [phenol red]
Recovery of phenol red [1]: 98.3 ± 1.0%

Cc1ncc2n1-c1ccc(Cl)cc1C(c1ccccc1F)=NC2 [Midazolam]
Papp at 90 min [2]: 203 ± 7 ×10⁻⁶ cm/s | Effective permeability coefficient, Rat [3]: 2.08 ± 0.50^c 10^-4cm s^-1

CCCCc1nc(Cl)c(CO)n1Cc1ccc(-c2ccccc2-c2nn[nH]n2)cc1 [Losartan]
Effective permeability coefficient, Caco-2 [4]: 0.022^b 10^-4cm s^-1 | Change in Peff of the probe drug when co-perfused with inhibitors [5]: significant change in Peff was observed | Papp at 90 min ([2]; other: in situ single pass intestinal perfusion): 42.7 ± 27 ×10⁻⁶ cm/s | Effective permeability coefficient, Human [6]: 1.15^a 10^-4cm s^-1
